# In PMC9847679, “The anti-breast cancer stem cell properties of gold(I)-non-steroidal anti-inflammatory drug complexes” (Chemical Science, 2022):
# Like-named read-outs stand apart in the source and are kept apart here.
# What was measured:
# [1] = test system: HMLER-shEcad mammospheres; parameters: method as in PMID 26806362, PMID 31209956, PMID 28932846; conditions: read-out: Mammosphere IC50; cited from earlier work
# HMLER-shEcad cells [2] = test system: HMLER-shEcad cells; parameters: method as in PMID 26806362, PMID 31209956, PMID 28932846; conditions: cited from earlier work
# [3] = Solution stability by UV-vis and NMR spectroscopy; format: physicochemical
# Protocol: The stability of 1–8 in solutions relevant for cell-based studies was determined by UV-vis spectroscopy studies. […] The DMSO- and PBS-stable complexes 1–4 (50 μM) were also deemed stable in MEGM : DMSO (1 : 1) over the course of 24 h at 37 °C (Fig. S22 ^†). Time course ^31P{^1H} and ^1H NMR spectroscopy studies were carried out to confirm the solution stability of 1–4. […] The ^1H NMR spectra for 1–3 (10 mM) remained unchanged over the same period (Fig. S26–S28 ^†). […] In the ^31P{^1H} NMR spectrum, the signal for intact 4 (at 27.05 ppm) completely disappeared after 48 h and was replaced by a signal corresponding to triphenylphosphine oxide (at 25.47 ppm) (Fig. S29 ^†). The formation of triphenylphosphine oxide was also detected in the ^1H NMR spectrum (Fig. S30 ^†). Additionally, plating of elemental gold was observed over the course of 72 h.
# HMLER-shEcad cells [4] = assay: Monolayer cytotoxicity (MTT assay), HMLER-shEcad cells; format: cell-based, human
# From the text: (§1) Cell Lines and Cell Culture Conditions. The human mammary epithelial HMLER and HMLER-shEcad cell lines were kindly donated by Prof. R. A. Weinberg (Whitehead Institute, MIT). The human epithelial breast MCF10A, breast adenocarcinoma MDA-MB-231 and MDA-MB-468, murine epithelial breast 4T1, and embryonic kidney HEK 293 cell lines were acquired from American Type Culture Collection (ATCC, Manassas, VA, USA).
# (§2) HMLER, HMLER-shEcad, and MCF10A cells were maintained in Mammary Epithelial Cell Growth Medium (MEGM) with supplements and growth factors (BPE, hydrocortisone, hEGF, insulin, and gentamicin/amphotericin-B). MDA-MB-231, MDA-MB-468, 4T1, and HEK 293 cells were maintained in Dulbecco's Modified Eagle's Medium (DMEM) supplemented with fetal bovine serum (10 %) and penicillin/streptomycin (1 %). The cells were grown at 310 K in a humidified atmosphere containing 5% CO2.
# (§3) Monolayer Cytotoxicity Studies. Exponentially growing cells were seeded at a density of approximately 5 × 10^3 cells per well in 96-well flat-bottomed microplates and allowed to attach for 24 h prior to addition of compounds. Various concentrations of the test compounds (0.0004-100 μM) were added and incubated for 72 h at 37 °C (total volume 200 μl). Stock solutions of the compounds were prepared as 10 mM DMSO solutions and diluted using cell […]
# (§4) media. The final concentration of DMSO in each well was ≤1 %. After 72 h, 20 μl of MTT (4 mg mL-1 in PBS) was added to each well and the plates incubated for an additional 4 h at 37 °C. The media/MTT mixture was eliminated and DMSO (100 μl per well) was added to dissolve the formazan precipitates. The optical density was measured at 550 nm using a 96-well multiscanner autoreader. Absorbance values were normalised to (DMSO-containing) control wells and plotted as concentration of test compound versus % cell viability. IC50 values were interpolated from the resulting dose dependent curves. The reported IC50 values are the average of three independent experiments (n = 18). […]
# (§5) After incubation for 16 […]
# (§6) h, the fluorescence of the solutions was read at 590 nm (λex = 560 nm). Viable mammospheres reduce the amount of the oxidised TOX8 form (blue) and concurrently increase the amount of the fluorescent TOX8 intermediate (red), indicating the degree of mammosphere cytotoxicity caused by the test compound. […]
# (§7) Cellular Uptake. To measure the cellular uptake of 1-3 about 1 million HMLER-shEcad cells were treated with 1-3 (0.25 μM) at 37 °C for 24 h. After incubation, the media was removed, the cells were washed with PBS (2 mL × 3) and harvested. The number of cells was counted at this stage, using a haemocytometer. This mitigates any cell death induced by 1-3 at the administered concentration and experimental cell loss. The cellular pellets were dissolved in 65% HNO3 (250 µL) overnight. A cellular pellet of HMLER-shEcad cells treated with 1 was also used to determine the gold content in the nuclear, cytoplasmic and membrane fractions. The Thermo Scientific NE-PER Nuclear and Cytoplasmic Extraction Kit was used to extract and separate the nuclear, cytoplasmic and membrane fractions. The fractions were dissolved in 65% HNO3 (250 µL final volume) overnight. All samples were diluted 17-fold with water and analysed using inductively coupled plasma mass spectrometry (ICP-MS, Thermo Scientific ICAP-Qc quadrupole ICP mass spectrometer). Gold levels are expressed as mass of Au (ng) per million cells. Results are presented as the mean of four determinations for each data point.
# (§8) Intracellular ROS Assay. […]
# HMLER cells = assay: Monolayer cytotoxicity (MTT assay), HMLER cells; format: cell-based, human
# From the text: as §1, §2, §3, §4, §5, §6, §7, §8
# [5] = test system: HMLER-shEcad mammospheres; assay: Mammosphere viability assay (TOX8); format: cell-based, human; conditions: 5 days incubation
# Protocol: Tumorsphere Formation and Viability Assay.
# in ultralow-attachment 96-well plates (Corning) and incubated in MEGM supplemented with B27 (Invitrogen), 20 ng mL-1 EGF and 4 μg mL-1 heparin (Sigma) for 5 days. […] The viability of the mammospheres was determined by addition of a resazurin-based reagent, TOX8 (Sigma). After incubation for 16 h, the fluorescence of the solutions was read at 590 nm (λex = 560 nm). Viable mammospheres reduce the amount of the oxidised TOX8 form (blue) and concurrently increase the amount of the fluorescent TOX8 intermediate (red), indicating the degree of mammosphere cytotoxicity caused by the test compound. Fluorescence values were normalised to DMSO-containing controls and plotted as concentration of test compound versus % mammospheres viability. IC50 values were interpolated from the resulting dose dependent curves. The reported IC50 values are the average of three independent experiments, each consisting of two replicates per concentration level (overall n = 6).
# [6] = Water-octanol partition coefficient (shake-flask, UV-vis); format: physicochemical; conditions: room temperature 24 h
# Protocol: Measurement of water-octanol partition coefficient (LogP). The LogP values for 1-8 were determined using the shake-flask method and UV-vis spectroscopy. The 1-octanol used in this experiment was pre-saturated with water. An aqueous solution of 1-8 (500 μL, 100 μM) was incubated with 1-octanol (500 μL) in a 1.5 mL tube. The tube was shaken at room temperature for 24 h. The two phases were separated by centrifugation and the 1-8 content in each phase was determined by UV-vis spectroscopy. […]
# MDA-MB-468 cells = assay: Monolayer cytotoxicity (MTT assay), MDA-MB-468 cells; format: cell-based, human; conditions: 72 h incubation
# From the text: as §1, §2, §3, §4
# Cellular Uptake. […]
# 4T1 cells = assay: Monolayer cytotoxicity (MTT assay), 4T1 cells; format: cell-based, murine; conditions: 72 h incubation
# From the text: as §1, §2, §3
# (§9) media. The final concentration of DMSO in each well was ≤1 %. […] The optical density was measured at 550 nm using a 96-well multiscanner autoreader. Absorbance values were normalised to (DMSO-containing) control wells and plotted as concentration of test compound versus % cell viability. […]
# (§10) h, the fluorescence of the solutions was read at 590 nm (λex = 560 nm). […]
# (§11) Cellular Uptake. […] The number of cells was counted at this stage, using a haemocytometer. […] All samples were diluted 17-fold with water and analysed using inductively coupled plasma mass spectrometry (ICP-MS, Thermo Scientific ICAP-Qc quadrupole ICP mass spectrometer). Gold levels are expressed as mass of Au (ng) per million cells. […]
# MDA-MB-231 cells = assay: Monolayer cytotoxicity (MTT assay), MDA-MB-231 cells; format: cell-based, human; conditions: 72 h incubation
# From the text: as §1, §2, §3, §9, §10, §11
# COX-2 [7] = target: T1, COX-2 (Ovis aries, UniProt P79208); assay: COX-2 inhibition enzyme immunoassay (EIA); format: biochemical, ovine; conditions: COX-2-catalysed conversion of arachidonic acid to prostaglandin, tested 1-250 μM
# T1 construct: purchased Cayman Chemicals
# T1 sequence (P79208 17-603): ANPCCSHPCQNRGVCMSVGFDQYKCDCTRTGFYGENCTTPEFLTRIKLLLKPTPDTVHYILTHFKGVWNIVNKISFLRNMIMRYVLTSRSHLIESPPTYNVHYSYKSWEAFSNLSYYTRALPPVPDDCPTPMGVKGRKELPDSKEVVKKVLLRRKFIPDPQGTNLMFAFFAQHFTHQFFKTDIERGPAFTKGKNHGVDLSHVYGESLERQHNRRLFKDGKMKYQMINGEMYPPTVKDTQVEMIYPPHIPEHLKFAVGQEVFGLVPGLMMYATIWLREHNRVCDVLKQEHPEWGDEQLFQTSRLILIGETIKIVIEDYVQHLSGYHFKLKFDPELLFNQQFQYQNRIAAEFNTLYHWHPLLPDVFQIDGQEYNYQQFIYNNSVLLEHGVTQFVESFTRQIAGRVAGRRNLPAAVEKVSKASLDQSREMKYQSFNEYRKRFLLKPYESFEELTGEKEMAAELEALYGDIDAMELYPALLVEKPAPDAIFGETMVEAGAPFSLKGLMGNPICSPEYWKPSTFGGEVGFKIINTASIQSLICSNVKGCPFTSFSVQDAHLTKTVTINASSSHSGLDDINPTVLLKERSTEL
# Protocol: ice-cold methanol (for 30 min), and suspended in PBS (200 μL). […]
# COX-2 Inhibition Enzyme Immunoassay (EIA). The COX-2 inhibitory properties of 1,
# indomethacin, and ch loro(triphenylphosphine)gold(I) was determined using the “COX
# (ovine) Inhibitor Screening Assay (Cayman Chemicals).” The assay was performed
# according to the manuf acturer’s instructions using a 96-well plate set up.
# COX-2 [8] = assay: COX-2 expression assay (flow cytometry); format: cell-based, human; conditions: LPS 2.5 μM 24 h pre-treatment; 1 at IC50 value or indomethacin 20 μM, 48 h
# Protocol: COX-2 Expression Assay. HMLER-shEcad cells were seeded in 6-well plates (at a density […]
# indomethacin (20 μM) and incubated for a further 48 h. The cells were then harvested by trypsinisation, fixed with 4% paraformaldehyde (at 37 °C for 10 min), permeabilised with ice-cold methanol (for 30 min), and suspended in PBS (200 μL). […]
# labelled anti-COX-2 antibody (5 μL) was then added to the cell suspension and incubated in the dark for 1 h. The cells were then washed with PBS (1 mL) and analysed using a FACSCanto II flow cytometer (BD Biosciences) (10,000 events per sample were acquired) at the University of Leicester FACS Facility. The FL1 channel was used to assess COX-2 expression. Cell populations were analysed using the FlowJo software (Tree Star).
# COX-2 Inhibition Enzyme Immunoassay (EIA). […]
# (ovine) Inhibitor Screening Assay (Cayman Chemicals).” The assay was performed according to the manuf acturer’s instructions using a 96-well plate set up.
# [9] = Homo sapiens, 72 h incubation, MTT
# [10] = Homo sapiens, within concentration range tested
smiles,measurement,setting,value
"CC[C@@H](C(=O)[C@@H](C)[C@@H](O)[C@H](C)[C@@H]1O[C@@H]([C@@H](CC)C(=O)O)CC[C@@H]1C)[C@H]1O[C@]2(C=C[C@@H](O)[C@]3(CC[C@@](C)([C@H]4CC[C@](O)(CC)[C@H](C)O4)O3)O2)[C@H](C)C[C@@H]1C [Salinomycin, salinomycin]",IC50,[1],19 ± 2 µM
same,IC50,HMLER-shEcad cells [2],4.23 ± 0.35 µM
O=C(Cc1ccccc1Nc1c(Cl)cccc1Cl)[O][Au][PH](c1ccccc1)(c1ccccc1)c1ccccc1 [complex 4],stability in DMSO-d6 (31P{1H} and 1H NMR),"[3]; 10 mM, 72 h",unstable in solution
"CCCCCOC(=O)Nc1nc(=O)n([C@@H]2O[C@H](C)[C@@H](O)[C@H]2O)cc1F [Capecitabine, capecitabine]",IC50,HMLER-shEcad cells [4]; [9],> 100 µM
same,IC50,HMLER cells; [9],> 100 µM
same,IC50,"[5]; Homo sapiens, 120 h",> 133 µM
Cc1c(Cl)cccc1Nc1ccccc1C(=O)[O][Au][PH](c1ccccc1)(c1ccccc1)c1ccccc1 [complex 6],LogP value,[6],1.17 ± 0.37
"O=c1[nH]cc(F)c(=O)[nH]1 [5-Fluorouracil, 5-fluorouracil, reference compound]",IC50,"[5]; Homo sapiens, 120 h",15 ± 1 µM
CC(=O)OC[C@H]1O[C@@H]([S-])[C@H](OC(C)=O)[C@@H](OC(C)=O)[C@@H]1OC(C)=O.CCP(CC)CC.[Au+] [auranofin],IC50,"HMLER-shEcad cells [4]; 72 h incubation, MTT",0.026 ± 0.005 µM
same,fold more potent towards HMLER cells than HMLER-shEcad cells,HMLER cells,2 fold
same,IC50,"HMLER cells; 72 h incubation, MTT",0.013 ± 0.002 µM
Cc1cccc(Nc2ccccc2C(=O)[O][Au][PH](c2ccccc2)(c2ccccc2)c2ccccc2)c1C [complex 7],LogP value,[6],0.83 ± 0.23
"N.N.O=C([O-])C1(C(=O)[O-])CCC1.[Pt+2] [Carboplatin, carboplatin]",IC50,[1],18 ± 1 µM
O=C([O][Au][PH](c1ccccc1)(c1ccccc1)c1ccccc1)c1cc(-c2ccc(F)cc2F)ccc1O [complex 2],IC50,"HMLER-shEcad cells [4]; 72 h incubation, MTT",0.138 ± 0.007 µM
same,IC50,"HMLER cells; 72 h incubation, MTT",0.221 ± 0.003 µM
same,IC50,[5],8 ± 1 µM
same,IC50,MDA-MB-468 cells,7.12 ± 0.1 µM
same,IC50,4T1 cells,7.25 ± 0.4 µM
same,IC50,MDA-MB-231 cells,5.79 ± 0.79 µM
same,LogP value,[6],1.54 ± 0.44
COc1ccc2cc([C@H](C)C(=O)[O][Au][PH](c3ccccc3)(c3ccccc3)c3ccccc3)ccc2c1 [complex 3],IC50,"HMLER-shEcad cells [4]; 72 h incubation, MTT",0.063 ± 0.006 µM
same,IC50,"HMLER cells; 72 h incubation, MTT",0.183 ± 0.001 µM
same,IC50,[5],8 ± 1 µM
same,IC50,MDA-MB-468 cells,6.48 ± 1.43 µM
same,IC50,4T1 cells,10.1 ± 0.86 µM
same,IC50,MDA-MB-231 cells,7.77 ± 0.41 µM
[Cl][Au].c1ccc(P(c2ccccc2)c2ccccc2)cc1 [chloro(triphenylphosphine)gold(I)],IC50,COX-2 [7],> 250 µM
same,IC50,"HMLER-shEcad cells [4]; 72 h incubation, MTT",0.216 ± 0.003 µM
same,fold less toxic towards HMLER and HMLER-shEcad cells than 1,HMLER-shEcad cells [4]; compared with 1,up to 3.8 fold
same,IC50,"HMLER cells; 72 h incubation, MTT",0.207 ± 0.005 µM
O=C([O][Au][PH](c1ccccc1)(c1ccccc1)c1ccccc1)c1ccccc1O [complex 5],stability in PBS : DMSO (1 : 1) (UV-vis),"[3]; 50 μM, 24 h, 37 °C","but not 5, was stable"
same,LogP value,[6],0.75 ± 0.01
CC(C)Cc1ccc(C(C)C(=O)[O][Au][PH](c2ccccc2)(c2ccccc2)c2ccccc2)cc1 (stereo not drawn) [complex 8],LogP value,[6],1.19 ± 0.01
COc1ccc2c(c1)c(CC(=O)O)c(C)n2C(=O)c1ccc(Cl)cc1 [indomethacin],IC50,HMLER-shEcad cells [4]; [10],> 100 µM
same,IC50,HMLER cells; [10],> 100 µM
same,COX-2 expression,COX-2 [8],decreased
